The nature of assay [1]: Displacement of [3H]bremazocine from opioid receptor of guinea pig membrane. Details: species or system Cavia porcellus.
Assay [2] addresses Kappa-type opioid receptor (Cavia porcellus, UniProt P41144). In words: Displacement of [3H]bremazocine from opioid receptor kappa of guinea pig membrane. For orientation: In a radioligand displacement assay an active substance lowers the binding of a labelled ligand.
The target in assay [3] is Opioid receptors; mu/kappa/delta (Homo sapiens, UniProt P41145+P41143+P35372). In words: Displacement of 0.5 nM [3H]bremazocine from opioid receptor sites in guinea pig membranes. Type of assay: cell membranes, Cavia porcellus. Conditions: target entry is the homologue from another species.

From ChEMBL document CHEMBL1125178, “Electrophilic gamma-lactone kappa-opioid receptor probes. Analogues of 2'-hydroxy-2-tetrahydrofurfuryl-5,9-dimethyl-6,7-benzomorphan diastereomers” (J Med Chem, 1991) come the findings set out here.

Sequence of Kappa-type opioid receptor (P41144 whole entry): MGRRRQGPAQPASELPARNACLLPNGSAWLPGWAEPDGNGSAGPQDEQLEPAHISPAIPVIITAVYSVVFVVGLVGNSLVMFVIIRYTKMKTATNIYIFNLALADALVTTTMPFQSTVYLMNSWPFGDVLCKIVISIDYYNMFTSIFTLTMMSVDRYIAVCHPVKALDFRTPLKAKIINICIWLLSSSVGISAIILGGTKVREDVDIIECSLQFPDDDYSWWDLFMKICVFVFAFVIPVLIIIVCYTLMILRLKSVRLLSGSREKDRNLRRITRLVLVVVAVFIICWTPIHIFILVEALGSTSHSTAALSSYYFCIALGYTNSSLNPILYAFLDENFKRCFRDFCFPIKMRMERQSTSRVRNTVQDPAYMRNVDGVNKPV

Regarding `C=C1C[C@@H](CN2CC[C@]3(C)c4cc(O)ccc4C[C@@H]2[C@@H]3C)OC1=O`, the IC50 (as a rule, the concentration needed to halve the response being measured) was determined as 380 nM in assay [1] and 400 nM in assay [2].
Turning to `C[C@H]1[C@H]2Cc3ccc(O)cc3[C@@]1(C)CCN2C[C@@H]1CCCO1`, the figures for the IC50 in assay [1] and in assay [2] were 2.3 nM and 1.7 nM, respectively.
In turn, `O=C1CC[C@@]2(O)[C@H]3Cc4ccc(O)c5c4[C@@]2(CCN3CC2CC2)[C@H]1O5` [NALTREXONE] had a half-inhibitory concentration (IC50) in assay [1] of 5.7 nM. In other words, the single-digit nanomolar range.
In the case of `C[C@H]1[C@H]2Cc3ccc(O)cc3[C@@]1(C)CCN2C[C@@H]1C=CC(=O)O1`, the figures for the IC50 in assay [1] and in assay [2] were 7.4 nM and 5.4 nM, respectively.
`C[C@H]1[C@H]2Cc3ccc(O)cc3[C@@]1(C)CCN2C[C@@H]1CCC(=O)O1`: the IC50 came out at 12 nM in assay [1] and 7.3 nM in assay [2].
For `C[C@H]1[C@H]2Cc3ccc(O)cc3[C@@]1(C)CCN2C[C@H]1C=CC(=O)O1`, in that order: 89 nM and 74 nM.
Consider `CC[C@H]1[C@H]2Cc3ccc(O)cc3[C@@]1(CC)CCN2Cc1ccoc1`, for which the IC50 stood at 2.9 nM in assay [1] and 1.6 nM in assay [2].
With `C[C@H]1[C@H]2Cc3ccc(O)cc3[C@@]1(C)CCN2C[C@H]1CCC(=O)O1`, the IC50 in assay [1] turned out to be 620 nM; in assay [2], 400 nM.
As to `C[C@H]1[C@H]2Cc3ccc(O)cc3[C@@]1(C)CCN2C[C@H]1CCCO1`, the results for the IC50 in assay [1] and in assay [2] were 84 nM and 70 nM, respectively.
`C[C@@H]1[C@@H]2Cc3ccc(O)cc3[C@]1(C)CCN2C[C@@H]1CCCO1` gave an IC50 in assay [3] of 1000 nM.
Regarding `C=C1C[C@H](CN2CC[C@]3(C)c4cc(O)ccc4C[C@@H]2[C@@H]3C)OC1=O`, the IC50 in assay [1] was over 3000 nM.
`CC[C@@H]1[C@@H]2Cc3ccc(O)cc3[C@]1(CC)CCN2Cc1ccoc1` displayed an IC50 in assay [1] of 2200 nM.
Still for that read-out and setting: to `C=C1C[C@H](CN2CC[C@@]3(C)c4cc(O)ccc4C[C@H]2[C@H]3C)OC1=O` belongs 1800 nM.
As to `C[C@H]1[C@H]2Cc3ccc(O)cc3[C@]1(C)CCN2Cc1ccco1`, the results for the IC50 in assay [1] and in assay [2] were 6.8 nM and 5.7 nM, respectively.
In assay [1], `C=CCN1CC[C@]23c4c5ccc(O)c4O[C@H]2C(=O)CC[C@@]3(O)[C@H]1C5` [NALOXONE] showed a concentration for half-maximal inhibition (IC50) of 23 nM.
With `C=C1C[C@@H](CN2CC[C@@]3(C)c4cc(O)ccc4C[C@H]2[C@H]3C)OC1=O`, the IC50 in assay [3] is 1300 nM. In other words, the single-digit micromolar range.
